Results reported in US9737516B2, “Bicyclic heterocycles as bet protein inhibitors” (Incyte Corporation, priority 2013, dated 2017).
Counter-ions that a name gives are not always drawn.

What was measured:
BRD4-BD2 = BRD4-BD2 (Homo sapiens (Human), UniProt O60885); test: BRD4 AlphaScreen assay (BRD4-BD2); type: binding; conditions: H4Ac4 peptide, 20 nM BRD4-BD2, read-out: BRD4 BD-2 enzyme IC50
Procedure: (§1) BRD4-BD1 and BRD4-BD2 assays were conducted in white 384-well polystyrene plate in a final volume of 20 μL for BD1 and 40 μL for BD2. Inhibitors were first serially diluted in DMSO and added to the plate wells before the addition of other reaction components. The final concentration of DMSO in the assay was 1.25% (BD1) and 0.83% (BD2). The assays were carried out at room temperature for 75 min. in the assay buffer (50 mM HEPES, pH 7.4, 100 mM NaCl, 0.05% CHAPS, 0.01% BSA), containing 50 nM Biotin-labeled tetra-acetylated histone H4 peptide (H4Ac4), 3.8 nM (BRD4-BD1, BPS Bioscience #31040) or 20 nM (BRD4-BD2, BPS Bioscience #31041). The reaction followed by the addition of 20 μL of assay buffer supplemented with Streptavidin donor beads (PerkinElmer 6760002) and GSH Acceptor beads (PerkinElmer-AL109C) at 4 µg/mL under reduced light. After plate sealing, the plate was incubated in the dark at room temperature for 75 min. before reading on a PHERAstar FS plate reader (BMG Labtech). IC50 determination was performed by fitting the curve of percent control activity versus the log of the inhibitor concentration using the GraphPad Prism 5.0 software. IC50 data for the Examples is presented in Table 1 as determined by Assay A1.

C-myc in KMS.12.BM cells = test: KMS.12.BM C-myc ELISA assay; type: cell-based; conditions: Homo sapiens, 2 hours
Procedure: KMS.12.BM cell line (human myeloma) was purchased from JCRB (Osaka, Japan) and maintained in RPMI with 10% FBS culture medium. To measure the C-myc inhibitory activity of the compounds, the KMS.12.BM cells are plated in the RPMI culture medium at 75000 cells/well/per 200 μL into a 96-well flat bottom polystyrene tissue culture plate (Corning through VWR, N.J.), in the presence or absence of a concentration range of test compounds. After 2 hours, cell are pelleted and lysed with Cell Extraction Buffer (BioSource, Carlsbad, Calif.) in the presence of protease inhibitors (Life Technologies, Grand Island, N.Y. and Sigma, St Louis, Mo.). Clarified lyses are tested in a C-myc commercial ELISA (Life Technologies, Grand Island, N.Y.). Compound inhibition is determined relative to cells cultured with no drug and the IC50 is reported as the compound concentration required for 50% C-myc inhibition. IC50 data for the Examples is presented in Table 3 as determined by Assay C1.

BRD4-BD1 = BRD4-BD1 (Homo sapiens (Human), UniProt O60885); test: BRD4 AlphaScreen assay (BRD4-BD1); type: binding; conditions: H4Ac4 peptide, 3.8 nM BRD4-BD1, read-out: BRD4 BD-1 enzyme IC50
Procedure: as §1

KMS.12.BM cells = test: KMS.12.BM cell viability assay (ATP quantitation, Cell Titer-GLO); type: cell-based; conditions: Homo sapiens, 72 h, 3 days, concentration required for 50% cell death, read-out: KMS cellular IC50
Procedure: KMS.12.BM cell line (human myeloma) was purchased from JCRB (Osaka, Japan) and maintained in RPMI with 10% FBS culture medium. To measure the cytotoxic activity of the compounds through ATP quantitation, the KMS.12.BM cells are plated in the RPMI culture medium at 5000 cells/well/per 100 μL into a 96-well polystyrene clear black tissue culture plate (Greiner-bio-one through VWR, NJ), in the presence or absence of a concentration range of test compounds. After 3 days, […] Cell Titer-GLO Luminescent (Promega, Madison, Wis.) cell culture agent is added to each well for 10 minutes at room temperature to stabilize the luminescent signal. This determines the number of viable cells in culture based on quantitation of the ATP present, which signals the presence of metabolically active cells. Luminescence is measured with the Top Count 384 (Packard Bioscience through Perkin Elmer, Boston, Mass.). Compound inhibition is determined relative to cells cultured with no drug and the IC50 is reported as the compound concentration required for 50% cell death. IC50 data for the Examples is presented in Table 2 as determined by Assay B1.

| IC50 (BRD4-BD2) | IC50 (C-myc in KMS.12.BM cells) | IC50 (BRD4-BD1) | Structure (SMILES) | IC50 (KMS.12.BM cells) |
| --- | --- | --- | --- | --- |
| ≤ 100 nM | ≤ 1000 nM | ≤ 100 nM | Cn1cc(-c2cc3[nH]c(=O)[nH]c3cc2Oc2ccc(F)cc2F)c2cc[nH]c2c1=O [Example 1, 5-(2,4-Difluorophenoxy)-6-(6-methyl-7-oxo-6,7-dihydro-1H-pyrrolo[2,3-c]pyridin-4-yl)-1,3-dihydro-2H-benzimidazol-2-one] | ≤ 1000 nM |
| ≤ 100 nM | ≤ 1000 nM | ≤ 100 nM | Cn1cc(-c2cc3[nH]c(=O)n(C)c3cc2Oc2ccc(F)cc2F)c2cc[nH]c2c1=O [Example 2, 6-(2,4-Difluorophenoxy)-1-methyl-5-(6-methyl-7-oxo-6,7-dihydro-1H-pyrrolo[2,3-c]pyridin-4-yl)-1,3-dihydro-2H-benzimidazol-2-one] | ≤ 1000 nM |
| ≤ 100 nM | ≤ 1000 nM | ≤ 100 nM | Cn1cc(-c2cc3ncn(C)c3cc2Oc2ccc(F)cc2F)c2cc[nH]c2c1=O [Example 3, 4-[6-(2,4-Difluorophenoxy)-1-methyl-1H-benzimidazol-5-yl]-6-methyl-1,6-dihydro-7H-pyrrolo[2,3-c]pyridin-7-one] | ≤ 1000 nM |
| ≤ 100 nM | ≤ 1000 nM | ≤ 100 nM | Cc1nc2cc(-c3cn(C)c(=O)c4[nH]ccc34)c(Oc3ccc(F)cc3F)cc2n1C [Example 4, 4-[6-(2,4-Difluorophenoxy)-1,2-dimethyl-1H-benzimidazol-5-yl]-6-methyl-1,6-dihydro-7H-pyrrolo[2,3-c]pyridin-7-one] | ≤ 1000 nM |
| ≤ 100 nM | ≤ 1000 nM | ≤ 100 nM | Cc1nc2cc(Oc3ccc(F)cc3F)c(-c3cn(C)c(=O)c4[nH]ccc34)cc2[nH]1 [Example 6, 4-[5-(2,4-Difluorophenoxy)-2-methyl-1H-benzimidazol-6-yl]-6-methyl-1,6-dihydro-7H-pyrrolo[2,3-c]pyridin-7-one trifluoroacetate] | ≤ 1000 nM |
| ≤ 100 nM |  | 100 to 1000 nM | Cn1cc(-c2cc3c(cc2Oc2ccc(F)cc2F)n(C)c(=O)n3C)c2cc[nH]c2c1=O [Example 7, 5-(2,4-Difluorophenoxy)-1,3-dimethyl-6-(6-methyl-7-oxo-6,7-dihydro-1H-pyrrolo[2,3-c]pyridin-4-yl)-1,3-dihydro-2H-benzimidazol-2-one] | ≤ 1000 nM |
| ≤ 100 nM | ≤ 1000 nM | ≤ 100 nM | Cn1cc(-c2cc3[nH]nnc3cc2Oc2ccc(F)cc2F)c2cc[nH]c2c1=O [Example 8, 4-(5-(2,4-difluorophenoxy)-1H-benzo[d][1,2,3]triazol-6-yl)-6-methyl-1H-pyrrolo[2,3-c]pyridin-7(6H)-one] | ≤ 1000 nM |
| ≤ 100 nM | ≤ 1000 nM | ≤ 100 nM | Cn1cc(-c2cc3c(cc2Oc2ccc(F)cc2F)n(C)c(=O)n3C)c2cn[nH]c2c1=O [Example 10, 4-[6-(2,4-Difluorophenoxy)-1,3-dimethyl-2-oxo-2,3-dihydro-1H-benzimidazol-5-yl]-6-methyl-1,6-dihydro-7H-pyrazolo[3,4-c]pyridin-7-one] | ≤ 1000 nM |
| ≤ 100 nM | ≤ 1000 nM | ≤ 100 nM | Cn1cc(-c2cc3[nH]cnc3cc2OCC2CCC2)c2cc[nH]c2c1=O [Example 11, 4-[5-(Cyclobutylmethoxy)-1H-benzimidazol-6-yl]-6-methyl-1,6-dihydro-7H-pyrrolo[2,3-c]pyridin-7-one] | ≤ 1000 nM |
| ≤ 100 nM |  | ≤ 100 nM | CCn1cnc2cc(OCC3CCC3)c(-c3cn(C)c(=O)c4[nH]ccc34)cc21 [Example 12, 4-[5-(Cyclobutylmethoxy)-1-ethyl-1H-benzimidazol-6-yl]-6-methyl-1,6-dihydro-7H-pyrrolo[2,3-c]pyridin-7-one] | ≤ 1000 nM |
| ≤ 100 nM | ≤ 1000 nM | ≤ 100 nM | CCn1cnc2cc(-c3cn(C)c(=O)c4[nH]ccc34)c(OCC3CCC3)cc21 [Example 13, 4-[6-(Cyclobutylmethoxy)-1-ethyl-1H-benzimidazol-5-yl]-6-methyl-1,6-dihydro-7H-pyrrolo[2,3-c]pyridin-7-one] | ≤ 1000 nM |
| ≤ 100 nM | ≤ 1000 nM | ≤ 100 nM | Cn1cc(-c2cc3c(cc2OCC2CCC2)ncn3C)c2cc[nH]c2c1=O [Example 14, 4-[5-(Cyclobutylmethoxy)-1-methyl-1H-benzimidazol-6-yl]-6-methyl-1,6-dihydro-7H-pyrrolo[2,3-c]pyridin-7-one] | ≤ 1000 nM |
| ≤ 100 nM | ≤ 1000 nM | ≤ 100 nM | Cn1cc(-c2cc3ncn(C)c3cc2OCC2CCC2)c2cc[nH]c2c1=O [Example 15, 4-[6-(Cyclobutylmethoxy)-1-methyl-1H-benzimidazol-5-yl]-6-methyl-1,6-dihydro-7H-pyrrolo[2,3-c]pyridin-7-one] | ≤ 1000 nM |
| ≤ 100 nM |  | 100 to 1000 nM | Cn1cc(-c2cc3c(cc2OCC2CCC2)ncn3Cc2ccccc2)c2cc[nH]c2c1=O [Example 16, 4-[5-(Cyclobutylmethoxy)-1-benzyl-1H-benzimidazol-6-yl]-6-methyl-1,6-dihydro-7H-pyrrolo[2,3-c]pyridin-7-one] |  |
| ≤ 100 nM | ≤ 1000 nM | ≤ 100 nM | Cn1cc(-c2cc3ncn(Cc4ccccc4)c3cc2OCC2CCC2)c2cc[nH]c2c1=O [Example 17, 4-[6-(Cyclobutylmethoxy)-1-benzyl-1H-benzimidazol-5-yl]-6-methyl-1,6-dihydro-7H-pyrrolo[2,3-c]pyridin-7-one] | ≤ 1000 nM |
| ≤ 100 nM | ≤ 1000 nM | ≤ 100 nM | CC(C)n1cnc2cc(OCC3CCC3)c(-c3cn(C)c(=O)c4[nH]ccc34)cc21 [Example 18, 4-[5-(Cyclobutylmethoxy)-1-isopropyl-1H-benzimidazol-6-yl]-6-methyl-1,6-dihydro-7H-pyrrolo[2,3-c]pyridin-7-one] | ≤ 1000 nM |
| ≤ 100 nM |  | ≤ 100 nM | Cn1cc(-c2cc3[nH]c(C4CCCC4)nc3cc2OCC2CCC2)c2cc[nH]c2c1=O [Example 21, 4-[5-(Cyclobutylmethoxy)-2-cyclopentyl-1H-benzimidazol-6-yl]-6-methyl-1,6-dihydro-7H-pyrrolo[2,3-c]pyridin-7-one bis(trifluoroacetate)] | ≤ 1000 nM |
| ≤ 100 nM |  | ≤ 100 nM | Cn1cc(-c2cc3[nH]c(CCC(=O)O)nc3cc2OCC2CCC2)c2cc[nH]c2c1=O [Example 22, Ammonium 3-[5-(cyclobutylmethoxy)-6-(6-methyl-7-oxo-6,7-dihydro-1H-pyrrolo[2,3-c]pyridin-4-yl)-1H-benzimidazol-2-yl]propanoate] | 1000 to 10000 nM |

| Structure (SMILES) | IC50 (BRD4-BD2) | IC50 (C-myc in KMS.12.BM cells) | IC50 (BRD4-BD1) | IC50 (KMS.12.BM cells) |
| --- | --- | --- | --- | --- |
| Cn1cc(-c2cc3[nH]cnc3cc2Oc2ccc(F)cc2F)c2cc[nH]c2c1=O [Example 5, 4-[5-(2,4-Difluorophenoxy)-1H-benzimidazol-6-yl]-6-methyl-1,6-dihydro-7H-pyrrolo[2,3-c]pyridin-7-one trifluoroacetate] | ≤ 100 nM | ≤ 1000 nM | ≤ 100 nM | ≤ 1000 nM |
| Cn1cc(-c2cc3[nH]cnc3cc2Oc2ccc(F)cc2F)c2cn[nH]c2c1=O [Example 9, 4-[6-(2,4-Difluorophenoxy)-1H-benzimidazol-5-yl]-6-methyl-1,6-dihydro-7H-pyrazolo[3,4-c]pyridin-7-one trifluoroacetate] | ≤ 100 nM | ≤ 1000 nM | ≤ 100 nM | ≤ 1000 nM |
